PMC11303713, “Allosteric inhibition of CFTR gating by CFTRinh-172 binding in the pore” (Nature Communications, 2024)
Several values for one entry are separate records, joined by “and”; a condition that tells them apart may be missing. Identical values can stand only once. Like-named read-outs stand apart in the source and are kept apart here.

Assays:
Experiment in all cases: Inside-out patch-clamp inhibition of CFTR current by Inh-172
Format in all cases: cell-based
[1] = molecular target: T1, T1142A-CFTR (Homo sapiens, UniProt P13569, T1142A)
T1 construct: expressed in transfected cells; host or cells: CHO cells, pcDNA plasmid
Protocol: (§1) CHO cells were grown at 37 °C in Dulbecco’s modified Eagle’s medium supplemented with 10% (vol/vol) fetal bovine serum (Sigma-Aldrich, St. Louis, MO). pcDNA plasmids carrying the desired CFTR construct were transfected to CHO cells using PolyFect transfection reagent (Qiagen, Hilden, Germany) together with green fluorescence protein (GFP) cDNA (pEGFP-C3, Takara Bio, Shiga, Japan) that helps identify expression of CFTR. Cells were first incubated with the transfection reagents at 37 °C for 6-12 hours on sterile glass chips in 35-mm tissue culture dishes before transferred to 27 °C for incubation for 2–7 days. Primers for mutations were ordered from Integrated DNA Technologies (Coralville, IA) and were summarized in Supplementary Data. All CFTR mutants were prepared with QuikChange XL kit (Agilent, Santa Clara, CA) and sequenced at the DNA Core facility at University of Missouri-Columbia.
(§2) Patch-clamp pipettes were made from borosilicate capillary glass using a two-stage vertical puller (PP-81; Narishige, Amityville, NY). The pipette tips were fire polished with a homemade microforge to yield a pipette resistance of 2–5 MΩ when filled with a pipette solution containing (in mM): 140 NMDG-Cl (N-methyl-D-glucamine-chloride), 5 CaCl2, 2 MgCl2, and 10 HEPES, pH 7.4. For recordings, transfected cells on glass chips were transferred into a continuously perfused chamber on the stage of an inverted microscope (IX51; Olympus, Tokyo, Japan) with the perfusing solution containing (in mM): 150 NMDG-Cl, 2 MgCl2, 10 EGTA, 8 Tris, and 10 HEPES, pH 7.4. The membrane patch was excised to an inside-out configuration with a seal resistance >40 GΩ. CFTR currents were recorded with an amplifier (EPC9; HEKA, Holliston, MA), filtered through an eight-pole Bessel filter (LPF-8; Warner Instruments, Hamden, CT) at 100 Hz and digitized to a computer at a sampling rate of 500 Hz with Pulse software (version 8.53; HEKA). The membrane potential was held at −30 mV. Solution exchange was achieved by a fast solution change system (SF-77B; Warner Instruments). Inh-172 was obtained from the CFTR Chemical Compound Program supported by the Cystic Fibrosis Foundation. All experiments were performed at room temperature.
(§3) The steady state mean currents were measured in the Igor Pro software (version 8.0; WaveMetrics). The mean baseline currents were subtracted from the steady state mean currents before the data were used to determine the degrees of inhibition. The degrees of inhibition by CFTR inhibitor 172 were calculated based on the equation:1 %inhibition=1−IInh−172/I0X100% where I0 and Iinh−172 represent uninhibited and inhibited currents, respectively. The IC50 and Hill coefficients were obtained by fitting percent inhibition as a function of [Inh-172] with the Hill equation:2 %inhibition=base+(max−base)/1+xhalf/x^rate where max and base represent the […] percent inhibition by Inh-172, x represents the concentration of Inh-172, and the rate is the Hill coefficient. The estimated IC50 (xhalf) and Hill coefficients are listed in Table 1 as mean ± standard deviation. Each patch-clamp recording was made from a separate cell.

[2] = molecular target: T2, T1142I-CFTR (Homo sapiens, UniProt P13569, T1142I); details: for inhibition at 0.1 µM: 100 nM Inh-172; for inhibition at 0.5 µM: 500 nM Inh-172; for inhibition at 1 µM: 1000 nM Inh-172; for inhibition at 5 µM: 5000 nM Inh-172; for inhibition at 10 µM: 10000 nM Inh-172
T2 construct: expressed in transfected cells; host or cells: CHO cells, pcDNA plasmid
Protocol: as §1, §2, §3

[3] = molecular target: T3, p-hTMD1-p-CFTR (pig CFTR with human CFTR's TMD1) (Sus scrofa, UniProt Q6PQZ2, A115E/A228G/F12V/H39Q/I11V/I421T/I87F/K242R/K407E/L215I/L315F/L328I/M332I/N256S/N426D/P145L/S418N/S41P/S43V/S445N/T209A/V125I/V231I)
T3 construct: expressed in transfected cells; host or cells: CHO cells, pcDNA plasmid
Protocol: as §1, §2, §3

[4] = molecular target: T4, W1145A-CFTR (Homo sapiens, UniProt P13569, W1145A)
T4 construct: expressed in transfected cells; host or cells: CHO cells, pcDNA plasmid
Protocol: as §1, §2, §3

[5] = molecular target: T5, human WT-CFTR (Homo sapiens, UniProt P13569); details: for inhibition at 0.05 µM: 50 nM Inh-172; for inhibition at 0.1 µM: 100 nM Inh-172; for inhibition at 1 µM: 1000 nM Inh-172
T5 construct: the native wild-type CFTR construct without any deletion or mutation; expressed in transfected cells; host or cells: CHO cells, pcDNA plasmid
Protocol: as §1, §2, §3

[6] = 100 nM Inh-172, read-out: percent inhibition of current, Mean
[7] = 500 nM Inh-172, read-out: percent inhibition of current, Mean
[8] = 1000 nM Inh-172, read-out: percent inhibition of current, Mean
[9] = 5000 nM Inh-172, read-out: percent inhibition of current, Mean
[10] = 5000 nM Inh-172, read-out: percent inhibition of current, individual cell
[11] = 10000 nM Inh-172, read-out: percent inhibition of current, Mean
[12] = 10000 nM Inh-172, read-out: percent inhibition of current, individual cell
[13] = read-out: percent inhibition of current, Mean
[14] = read-out: percent inhibition of current, individual cell
[15] = 500 nM Inh-172, read-out: percent inhibition of current, individual cell

T2 sequence (P13569 whole entry T1142I): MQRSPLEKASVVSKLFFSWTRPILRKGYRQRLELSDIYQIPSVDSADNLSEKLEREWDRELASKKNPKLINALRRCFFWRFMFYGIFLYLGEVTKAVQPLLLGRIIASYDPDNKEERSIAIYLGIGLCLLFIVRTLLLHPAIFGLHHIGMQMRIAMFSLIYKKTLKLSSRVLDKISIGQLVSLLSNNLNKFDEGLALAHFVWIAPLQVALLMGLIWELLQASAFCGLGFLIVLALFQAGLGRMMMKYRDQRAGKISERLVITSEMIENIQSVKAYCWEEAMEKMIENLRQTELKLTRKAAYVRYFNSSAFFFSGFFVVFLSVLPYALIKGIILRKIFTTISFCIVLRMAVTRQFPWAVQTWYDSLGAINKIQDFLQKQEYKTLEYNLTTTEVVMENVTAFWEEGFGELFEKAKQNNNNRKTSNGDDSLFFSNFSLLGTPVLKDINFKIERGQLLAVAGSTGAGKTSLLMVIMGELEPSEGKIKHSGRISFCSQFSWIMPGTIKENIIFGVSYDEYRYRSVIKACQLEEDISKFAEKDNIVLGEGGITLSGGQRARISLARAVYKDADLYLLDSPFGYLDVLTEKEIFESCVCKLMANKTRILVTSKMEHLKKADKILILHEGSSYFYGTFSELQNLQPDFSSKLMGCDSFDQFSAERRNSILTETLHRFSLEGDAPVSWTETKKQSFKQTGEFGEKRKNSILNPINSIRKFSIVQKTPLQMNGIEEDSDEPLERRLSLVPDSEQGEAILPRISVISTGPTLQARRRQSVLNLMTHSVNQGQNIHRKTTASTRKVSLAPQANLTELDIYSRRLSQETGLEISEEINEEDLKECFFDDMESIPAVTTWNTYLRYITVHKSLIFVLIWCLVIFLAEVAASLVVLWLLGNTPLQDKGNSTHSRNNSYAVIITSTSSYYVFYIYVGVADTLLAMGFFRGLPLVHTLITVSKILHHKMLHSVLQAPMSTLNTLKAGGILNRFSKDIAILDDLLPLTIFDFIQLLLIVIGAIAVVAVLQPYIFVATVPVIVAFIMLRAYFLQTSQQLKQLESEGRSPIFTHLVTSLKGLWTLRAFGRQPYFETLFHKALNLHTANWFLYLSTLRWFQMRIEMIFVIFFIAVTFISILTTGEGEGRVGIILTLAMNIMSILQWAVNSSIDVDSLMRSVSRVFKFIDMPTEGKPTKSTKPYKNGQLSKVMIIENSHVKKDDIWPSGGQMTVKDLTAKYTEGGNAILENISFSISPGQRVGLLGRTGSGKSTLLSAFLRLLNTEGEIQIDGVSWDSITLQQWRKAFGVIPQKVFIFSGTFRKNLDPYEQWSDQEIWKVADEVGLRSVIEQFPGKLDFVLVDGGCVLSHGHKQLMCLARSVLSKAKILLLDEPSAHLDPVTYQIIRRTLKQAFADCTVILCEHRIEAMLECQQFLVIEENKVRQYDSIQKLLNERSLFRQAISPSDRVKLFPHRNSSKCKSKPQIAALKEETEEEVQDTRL
T4 sequence (P13569 whole entry W1145A): as the sequence (P13569 whole entry T1142I) above, with I1142T, W1145A counted along it
T3 sequence (Q6PQZ2 1-1482 with the stated changes): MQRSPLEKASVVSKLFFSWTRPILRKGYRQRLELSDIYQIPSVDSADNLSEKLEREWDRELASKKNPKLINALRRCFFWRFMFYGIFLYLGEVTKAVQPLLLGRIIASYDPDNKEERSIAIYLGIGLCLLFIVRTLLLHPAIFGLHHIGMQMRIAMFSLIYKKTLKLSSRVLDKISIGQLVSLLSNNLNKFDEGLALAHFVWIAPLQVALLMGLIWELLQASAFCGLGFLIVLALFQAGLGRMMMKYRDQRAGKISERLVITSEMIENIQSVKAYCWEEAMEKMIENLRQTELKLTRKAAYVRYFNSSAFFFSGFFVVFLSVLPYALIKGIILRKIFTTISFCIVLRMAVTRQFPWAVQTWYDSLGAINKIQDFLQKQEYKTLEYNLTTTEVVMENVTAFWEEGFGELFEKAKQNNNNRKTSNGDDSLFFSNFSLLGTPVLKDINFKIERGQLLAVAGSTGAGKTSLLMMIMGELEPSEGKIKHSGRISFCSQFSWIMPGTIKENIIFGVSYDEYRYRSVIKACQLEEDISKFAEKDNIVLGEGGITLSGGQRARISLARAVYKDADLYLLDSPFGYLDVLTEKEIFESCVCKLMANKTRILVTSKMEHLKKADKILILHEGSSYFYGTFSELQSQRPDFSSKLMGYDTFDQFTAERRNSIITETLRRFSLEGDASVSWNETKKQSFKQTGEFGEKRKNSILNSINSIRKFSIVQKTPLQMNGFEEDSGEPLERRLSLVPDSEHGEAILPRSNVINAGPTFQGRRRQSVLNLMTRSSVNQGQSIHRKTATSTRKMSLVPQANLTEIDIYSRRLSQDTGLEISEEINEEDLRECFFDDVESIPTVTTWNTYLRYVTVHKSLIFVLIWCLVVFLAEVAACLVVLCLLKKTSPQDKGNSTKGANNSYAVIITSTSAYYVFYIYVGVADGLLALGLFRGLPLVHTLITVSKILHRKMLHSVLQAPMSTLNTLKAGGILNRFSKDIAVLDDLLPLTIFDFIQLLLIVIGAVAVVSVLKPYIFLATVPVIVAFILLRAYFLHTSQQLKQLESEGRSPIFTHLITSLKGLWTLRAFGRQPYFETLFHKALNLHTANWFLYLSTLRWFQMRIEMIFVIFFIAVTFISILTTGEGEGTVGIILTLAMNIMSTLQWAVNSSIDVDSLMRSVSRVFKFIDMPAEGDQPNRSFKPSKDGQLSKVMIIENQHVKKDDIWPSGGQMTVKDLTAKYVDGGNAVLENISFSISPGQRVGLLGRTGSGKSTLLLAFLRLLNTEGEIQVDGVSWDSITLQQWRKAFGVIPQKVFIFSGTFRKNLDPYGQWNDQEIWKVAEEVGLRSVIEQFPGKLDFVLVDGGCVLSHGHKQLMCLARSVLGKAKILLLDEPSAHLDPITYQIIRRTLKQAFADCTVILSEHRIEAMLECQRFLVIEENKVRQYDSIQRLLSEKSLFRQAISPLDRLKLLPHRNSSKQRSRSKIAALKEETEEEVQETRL
T5 sequence (P13569 whole entry): as the sequence (P13569 whole entry T1142I) above, with I1142T counted along it
T1 sequence (P13569 whole entry T1142A): as the sequence (P13569 whole entry T1142I) above, with I1142A counted along it

O=C(O)c1ccc(/C=C2\SC(=S)N(c3cccc(C(F)(F)F)c3)C2=O)cc1 [Inh-172, CFTRinh-172]
percent inhibition of current, individual cell ([1]; 100 nM Inh-172): 28.0 and 24.0 and 52.0 and 14.0 and 42.0
inhibition at 0.1 µM [1, 6]: 31.3%
percent inhibition of current, individual cell ([1]; 500 nM Inh-172): 61.0 and 67.0 and 78.0 and 44.0 and 66.0
inhibition at 0.5 µM [1, 7]: 63.2%
percent inhibition of current, individual cell ([1]; 1000 nM Inh-172): 74.0 and 70.0 and 87.0 and 60.0 and 78.0
inhibition at 1 µM [1, 8]: 73.8%
percent inhibition of current, individual cell ([1]; 5000 nM Inh-172): 93.0 and 96.0 and 84.0
inhibition at 5 µM [1, 9]: 91.2%
inhibition at 5 µM [1, 10]: 90%
percent inhibition of current, individual cell ([1]; 10000 nM Inh-172): 98.0 and 92.0
inhibition at 10 µM [1, 11]: 96.2%
inhibition at 10 µM [1, 12]: 97%
Hill Coefficient ([1]; T1142A): 0.81 ± 0.02
IC50 ([1]; T1142A): 0.27 ± 0.01 µM
inhibition at 0.1 µM [2, 13]: 7.2%
inhibition at 0.1 µM [2, 14]: 5%
inhibition at 0.5 µM [2, 13]: 22.5%
inhibition at 0.5 µM [2, 14]: 22%
inhibition at 1 µM [2, 13]: 39.3%
inhibition at 1 µM [2, 14]: 38%
inhibition at 5 µM [2, 13]: 78.3%
inhibition at 5 µM [2, 14]: 78%
inhibition at 10 µM [2, 13]: 90.7%
inhibition at 10 µM [2, 14]: 90%
Hill Coefficient ([2]; T1142I): 1.12 ± 0.05
IC50 ([2]; T1142I): 1.49 ± 0.07 µM
percent inhibition of current, individual cell ([3]; 100 nM Inh-172): 4 and 3 and 1
inhibition at 0.1 µM [3, 6]: 2.7%
percent inhibition of current, individual cell ([3]; 500 nM Inh-172): 17 and 15
inhibition at 0.5 µM [3, 7]: 17.3%
inhibition at 0.5 µM [3, 15]: 20%
percent inhibition of current, individual cell ([3]; 1000 nM Inh-172): 30 and 24
inhibition at 1 µM [3, 8]: 32%
inhibition at 1 µM ([3]; 1000 nM Inh-172, read-out: percent inhibition of current, individual cell): 42%
percent inhibition of current, individual cell ([3]; 5000 nM Inh-172): 67 and 68
inhibition at 5 µM [3, 9]: 68.7%
inhibition at 5 µM [3, 10]: 71%
percent inhibition of current, individual cell ([3]; 10000 nM Inh-172): 83 and 81
inhibition at 10 µM [3, 11]: 83.3%
inhibition at 10 µM [3, 12]: 86%
Hill Coefficient ([3]; p-hTMD1-p): 1.03 ± 0.03
IC50 ([3]; p-hTMD1-p): 2.21 ± 0.07 µM
percent inhibition of current, individual cell ([4]; 100 nM Inh-172): 2 and 8 and 0.5
inhibition at 0.1 µM [4, 6]: 3.5%
percent inhibition of current, individual cell ([4]; 500 nM Inh-172): 32 and 33
inhibition at 0.5 µM [4, 7]: 37.3%
inhibition at 0.5 µM [4, 15]: 42%
percent inhibition of current, individual cell ([4]; 1000 nM Inh-172): 60 and 69 and 44 and 52 and 49
inhibition at 1 µM [4, 8]: 54.8%
percent inhibition of current, individual cell ([4]; 5000 nM Inh-172): 89 and 75 and 91 and 80
inhibition at 5 µM [4, 9]: 85%
inhibition at 5 µM [4, 10]: 90%
percent inhibition of current, individual cell ([4]; 10000 nM Inh-172): 86 and 88
inhibition at 10 µM [4, 11]: 89.8%
inhibition at 10 µM [4, 12]: 95%
Hill Coefficient ([4]; W1145A): 1.08 ± 0.12
IC50 ([4]; W1145A): 0.88 ± 0.09 µM
inhibition at 0.025 µM ([5]; 25 nM Inh-172, read-out: percent inhibition of current, Mean): 27.2%
inhibition at 0.05 µM [5, 13]: 33.5%
inhibition at 0.05 µM [5, 14]: 28%
inhibition at 0.1 µM [5, 13]: 60.2%
inhibition at 0.1 µM [5, 14]: 53%
inhibition at 0.5 µM ([5]; 0.5 µM Inh-172, read-out: WT-CFTR current inhibited): 80%
inhibition at 0.5 µM [5, 7]: 81%
inhibition at 0.5 µM [5, 15]: 75%
inhibition at 1 µM [5, 13]: 91.4%
inhibition at 1 µM [5, 14]: 88%
inhibition at 10 µM [5, 12]: 89%
Hill Coefficient ([5]; Human WT): 0.88 ± 0.09
Hill Coefficient ([5]; Human WT + 200 nM VX-770): 1.07 ± 0.10
IC50 ([5]; Human WT + 200 nM VX-770): 0.25 ± 0.02 µM
Hill Coefficient ([5]; Human WT + 1 µM VX-770): 0.98 ± 0.02
IC50 ([5]; Human WT + 1 µM VX-770): 0.42 ± 0.01 µM
IC50 ([5]; Human WT, inside-out patch, -30 mV, 2 mM ATP, Hill fit): 0.08 ± 0.01 µM
IC50 ([5]; human CFTR, value of earlier manuscript version quoted in peer review file): 0.083 µM
